Columns and labels:
[1] = Pharmacokinetic analysis: serum and urine by DART TOF-MS after a 100 mg lozenge; type: in vivo, human; conditions: humans
Experimental: Five healthy consenting female adults ranging in age from 23 to 57 were took diets free of flavonoids and any NSAIDs. A certified individual collected blood samples at several time intervals between 0 and 480 min after compounds of the present invention were ingested in a mixture. Immediately after the time zero blood samples were collected, a single 100 mg dose of the composition was administered as a lozenge. Blood samples were handled with approved protocols and precautions, centrifuged to remove cells and the serum fraction was collected and frozen. Blood was not treated with heparin to avoid any analytical interference. Urine samples were collected from the same five subjects on a time course (0 to 8 h). The cells were removed from the blood samples by centrifugation and the serum was collected. Serum samples were prepared for DART TOF-MS analysis by extraction with an equal volume of neat ethanol (USP) to minimize background of proteins, peptides, and polysaccharides present in serum. The ethanol extract was centrifuged for 10 min at 4° C., the supernatant was removed, concentrated to 200 μL volume, and 50 μL of an internal standard was added. Urine samples were not treated and used directly for DART TOF-MS. DART TOF-MS analyses were conducted as described above.

[2] = target: T1, tryptase enzyme (Homo sapiens, UniProt P20231); assay: Tryptase enzyme inhibition (cleavage of tosyl-gly-pro-lys-pNA, absorbance at 405 nm); type: biochemical; conditions: 2 h at 37° C.; relative to controls
T1 construct: purchased Millipore Inc., Westbury, Mass
T1 sequence (P20231 31-275): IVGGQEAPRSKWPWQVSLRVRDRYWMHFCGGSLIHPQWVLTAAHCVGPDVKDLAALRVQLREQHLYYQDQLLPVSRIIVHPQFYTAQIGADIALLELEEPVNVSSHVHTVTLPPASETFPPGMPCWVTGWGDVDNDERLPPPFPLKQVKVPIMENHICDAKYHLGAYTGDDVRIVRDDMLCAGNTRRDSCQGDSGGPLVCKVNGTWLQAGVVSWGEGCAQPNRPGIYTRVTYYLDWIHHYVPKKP
Experimental: A. Tryptase Enzyme Inhibition
Tryptase activity was determined by monitoring the production of chromophore p-nitroaniline (pNA) generated by the cleavage of tosyl-gly-pro-lys-pNA by the tryptase enzyme according to the manufacturer's protocol (Millipore Inc., Westbury, Mass.). In a 96-well format, 10 μL of tryptase was added to 10 μL of sample, followed by 20 μL of tosyl-gly-pro-lys-pNA and 160 μL of 1× reaction buffer and incubated for 2 h at 37° C. After the incubation, absorbance at 405 nm was measured in each well using a Tecan M200 microplate reader.

[3] = in a mixture, slow-dissolve lozenge

In the case of `CCCCCN(c1ccc(N)cc1)c1ccc(S)cc1.Cl` [III, 4-[(4-Amino-phenyl)-pentyl-amino]benzenethiol hydrochloride salt], the “Time to appearance in urine” value [1, 3] is reported as ≤ 1 h, the “Time to first appearance in bloodstream (serum)” value [1, 3] is reported as ≤ 10 min and the “Time up to which present in the blood post-ingestion” value [1, 3] is reported as “up to 360 min”. For the same compound, the “Time up to which present in urine post-ingestion” value [1, 3] was “up to 8 h”, the “Detection in blood at 480 min after ingestion” value ([1]; lozenge, 480 min) was “not detected” and the IC50 [2] was 493 µM.

Reference: patent US20100113608A1, “Tryptase Enzyme Inhibiting Aminothiophenols” (priority 2008, published 2010)
